One series has as its target potassium channels (Sus scrofa, UniProt F1SR11). The series is described as follows: Functional potassium channel opening activity in isolated Landrace pig bladder strips (field-stimulated twitch). The following applies: for Landrace Pig Bladder Index: ED50 for P1075 divided by ED50 for the test agonist, averaged over tissues; for Landrace Pig Bladder pD2: negative logarithm of ED50; for Emax: pig; for Emax / Landrace Pig Bladder Efficacy (% P1075): maximal efficacy relative to P1075, field stimulation 0.05Hz, 0.5 milli-seconds at 20 volts. As for the experimental part:
The entire bladder was removed and ed into Krebs Ringer bicarbonate solution (composition, mM: NaCl,; dextrose, 1; KCl, 4.7; […] Propranolol (0.004 ed in all of the assays to block […]. The trigonal and dome […]. Strips 3-5 mm wide and 20 mm long were prepared from the cut in a circular fashion. The mucosal layer was removed. One end ationary glass rod and the other to a Grass FT03 transducer at a basal am. Two parallel platinum electrodes were included in the stationary ide field stimulation of 0.05Hz, 0.5 milli-seconds at 20 volts. […] Tissues were allowed to equilibrate for at least 60 minutes and primed with 80 mM KCl. A control concentration response curve (cumulative) was generated for each tissue using the potassium channel opener […] as the control agonist. […] After a 60 minute rinsing period, a concentration response curve (cumulative) was generated for the test agonist in the same fashion as that used for the control agonist […]. The maximal efficacy of each compound (expressed as % relative to […]) is reported. […] J. Physiol. 235, E97 (1980)), and agonist potencies were expressed as pD2 (the negative logarithm). Agonist potencies were also expressed as an index relative to […]. The index was calculated by dividing the ED50 for […] by the ED50 for the test agonist in a given tissue. Each tissue was used for only one test agonist, and the indices obtained from each tissue were averaged to provide an average index of potency.

The term melting point denotes the temperature, or range, at which the solid turns liquid. The Emax is the size of the effect at its maximum, as opposed to the concentration needed.

Turning to `N#Cc1cccc(C2C3=C(CCC3=O)NC3=C2S(=O)(=O)CC3)c1` (single isomer, unassigned; (-)) [Example 162], the melting point was over 250 °C. The same measure, in the same setting: the figure for `CC1(C)CCC2=C(C1=O)C(c1ccc(Cl)c(Cl)c1)C1=C(CCS1(=O)=O)N2` (centres unmarked) [Example 127, 9-(3,.4-dichlorophenyl)-7,7-dimethyl-2,3.5,.6,7,9-hexahydrothieno[3,*2-b Iquinolin-8(4H)-one, 1,1-dioxide] is 262 to 265 °C (dec.); for `O=C1CCCC2=C1C(c1cc(Br)cs1)C1=C(CCS1(=O)=O)N2` (centres unmarked) [Example 129, 9-(4-bromo-2-thienyl)-2,3,5,6,7,9-hexahydrothieno[3,2-b]quinolin-8(4H)-one, 1,1-dioxide] it is over 250 °C.

In turn, `O=C1CCCC2=C1C(c1ccc(F)c(I)c1)C1=C(CCS1(=O)=O)N2` (centres unmarked) [Example 89, 9-(4-fluoro-3-iodophenyl)-2,3,5,6,7,9-hexahydrothieno [3.2-b]quinolin-8(4H)-one, 1,1-dioxide] came in with a melting point of over 250 °C.

With `O=C1CCC2=C1C(c1ccc(Cl)c([N+](=O)[O-])c1)C1=C(CCS1(=O)=O)N2` (single isomer, unassigned) [Example 160], the melting point is over 250 °C. Still for that read-out and setting: with `N#Cc1cc(C2C3=C(CCS3(=O)=O)NC3=C2S(=O)(=O)CC3)ccc1F` [Example 82] the figure was 275 to 280 °C (dec.); with `O=C1CCC2=C1C(c1ccc(F)c(I)c1)C1=C(CCS1(=O)=O)N2` (centres unmarked) [Example 90], over 250 °C. The same measure, in the same setting: with `O=C1CCCC2=C1C(c1cc(Cl)ccc1O)C1=C(CCS1(=O)=O)N2` (centres unmarked) [Example 120, 9-(5-chloro-2-hydroxyphenyl)-2,3,5,6,7,,9-hexahydrothieno[3 .2-b]guinolin-8(4H)-one, 1. I -dioxide] the figure was over 250 °C.

`O=C1CCC2=C1C(c1ccc(Br)s1)C1=C(CCS1(=O)=O)N2` (centres unmarked) [Example 68] showed a melting point of 246 to 247 °C. The same measure, in the same setting: the figure for `CC1=C(S(C)(=O)=O)C(c2ccc(Cl)c([N+](=O)[O-])c2)C2=C(CCC2=O)N1` (centres unmarked) [Example 76, 4-(4-chloro-3-nitrophenyl)-1,4,6,7-tetrahydro-2-methyl-3-,(methylsulfonyl)-5H-cyclopenta[b]pyridin-5-one] is 232 °C; for `O=C1CCCC2=C1C(c1cccnc1)C1=C(CCS1(=O)=O)N2` (centres unmarked) [Example 117, 9-(3-pyridinyl)-2,3,5,6,7,9-hexahydrothieno[3,2-b]quinolin-8(4H)-one, 1,1-dioxide] it is over 250 °C. In turn, `O=S1(=O)CCC2=C1C(c1ccc(F)c(Cl)c1)C=C(C(F)(F)F)N2` (centres unmarked) [Example 163, 7-(3-chloro-4-fluorophenyl)-5-(trifluoromethyl)-2,3,4,7-tetrahydrothieno[3,2-b]pyridine, 1,1-dioxide] showed a melting point of 180 to 183 °C. On the same count and under the same terms, with `O=C1CCC2=C1C(c1ccc(F)c(F)c1)C1=C(CCS1(=O)=O)N2` (centres unmarked) [Example 79] the figure was over 260 °C; with `O=C1CCCC2=C1C(c1ccc(Cl)c(C(F)(F)F)c1)C1=C(CCS1(=O)=O)N2` (centres unmarked) [Example 151, 9-[4-chloro-3-(trifluoromethyl)phenyl]-2,3,5,6,7,9-hexahydrothieno [32-b]quinolin-8(4H)-one, 1,1-dioxide], over 250 °C. On the same count and under the same terms, the figure for `N#Cc1ccc(C2C3=C(CCCC3=O)NC3=C2S(=O)(=O)CC3)s1` (centres unmarked) [Example 175, 9-(5-cyano-2-thienyl)-2,3,5,6,7,9-hexahydrothieno[3,2-b]guinolin-8(4H)-one, 1,1-dioxide] is over 250 °C. The same measure, in the same setting: with `N#Cc1cccc(C2C3=C(CCS3(=O)=O)NC3=C2S(=O)(=O)CC3)c1` [Example 62, 8-(3-cyanophenyl)-2,3,4,5,6,8-hexahydrodithieno [3.2-b:2′,3′-e]pyridine. 1,1,7,7-tetraoxide] the figure was 248 °C. Regarding `O=C1CCC2=C1C(c1ccc(Cl)c(F)c1)C1=C(CCS1(=O)=O)N2` (centres unmarked) [Example 80], the melting point is over 260 °C. Still for that read-out and setting: the figure for `CC1=C(S(C)(=O)=O)C(c2ccc(Cl)c(Cl)c2)C2=C(CCC2=O)N1` (centres unmarked) [Example 75, 4-(3,4-dichlorophenyl)-1,4,6,7-tetrahydro-2-methyl-3-(methylsulfonyl)-5H-cyclopentafblpyridin-5-one] is 218 to 220 °C.

For `O=[N+]([O-])c1cccc(C2C3=C(CCCS3(=O)=O)NC3=C2S(=O)(=O)CCC3)c1` [Example 59, 3,4,6,7,8,10-hexahydro-10-(3-nitrophenyl)-2H,5H-dithiopyrano [3.2-b:2′,3′-e]pyridine, 1,1,9,9-tetraoxide], the melting point was over 260 °C. The same measure, in the same setting: the figure for `O=C1CCC2=C1C(c1ccc(Cl)c(Cl)c1)C1=C(CCS1(=O)=O)N2` (single isomer, unassigned) [Example 145] is over 250 °C.

Regarding `O=C1CCCC2=C1C(c1cccc(Cl)c1)C1=C(CCCS1(=O)=O)N2` (centres unmarked) [Example 16, 10-(3-chlorophenyl)-3,4,6,7,8,10-hexahydro-2H-thiopyrano [3.2-b]quinolin-9(5H)-one, 1,1-dioxide], on potassium channels, the “Landrace Pig Bladder Index” value was 0.011, the “Landrace Pig Bladder pD2” value worked out at 5.0 and the Emax came to 100%.

On to `O=S1(=O)CCC2=C1C(c1ccc(F)c(Br)c1)C1=C(CCS1(=O)=O)N2` [Example 53, 8-(3-bromo-4-fluorophenyl)-2,3,4,5,6,8-hexahydrodithieno [3.2-b:2′,3′-e]pyridine, 1,1,7,7-tetraoxide], for which, on potassium channels, the “Landrace Pig Bladder Index” value was 0.17, the “Landrace Pig Bladder pD2” value was 6.6 and the Emax amounted to 100%. On the same counts, the results for `O=C1CCCC2=C1C(c1cc(Br)ccc1O)C1=C(CCS1(=O)=O)N2` (centres unmarked) [Example 108, 9-(5-bromo-2-hydroxyphenyl)-2,3,5,6,7,9-hexahydrothieno[3,2-b]quinolin-8(4H)-one 1,1-dioxide] are 0.075, 4.7 and 98%.

Turning to `CC1=C(S(C)(=O)=O)C(c2cccc([N+](=O)[O-])c2)C2=C(CCCC2=O)N1` (centres unmarked) [Example 26, 4,6,7,8-tetrahydro-2-methyl-3-(methylsulfonyl)-4-(3-nitrophenyl)-5(1H)-quinolinone], at potassium channels, the “Landrace Pig Bladder Index” value turned out to be 0.0099, the “Landrace Pig Bladder pD2” value is 4.5 and the Emax came to 78%. On the same counts, the results for `O=S1(=O)CCC2=C1C(c1ccc(F)c(Br)c1)C=C(C(F)(F)F)N2` (centres unmarked) [Example 112, 7-(3-bromo-4-fluorophenyl)-5-(trifluoromethyl)-2,3,4,7-tetrahydrothieno [3,2-b]pyridine. 1,1-dioxide] are 0.032, 5.7 and 99%. As for `O=C1CCCC2=C1C(c1ccc(F)c(Cl)c1)C1=C(CCS1(=O)=O)N2` (single isomer, unassigned; (-)) [Example 110, (−)-9-(3-chloro-4-fluorophenyl)-2,3,5,6,7,9-hexahydrothieno[3.2-b]quinolin-8(4H)-one, 1,1-dioxide], at potassium channels, the “Landrace Pig Bladder Index” value is given as 0.17, the “Landrace Pig Bladder Efficacy (% P1075)” value came to 100 % P1075 and the “Landrace Pig Bladder pD2” value stood at 6.7. With `O=C1CCC2=C1C(c1csc([N+](=O)[O-])c1)C1=C(CCS1(=O)=O)N2` (centres unmarked) [Example 69], at potassium channels, the “Landrace Pig Bladder Index” value is 0.15, the “Landrace Pig Bladder pD2” value was determined as 6.2 and the Emax was 98%.

Consider `N#Cc1cccc(C2C3=C(CCCC3=O)NC3=C2S(=O)(=O)CC3)c1` (centres unmarked) [Example 30, 9-(3-cyanophenyl)-2,3,5,6,7,9-hexahydrothieno [3.2-b]quinolin-8(4H)-one, 1,1-dioxide], for which, on potassium channels, the “Landrace Pig Bladder Index” value was 0.018, the “Landrace Pig Bladder pD2” value is 5.5 and the Emax came out at 99%. The matching figures for `O=C1CCCC2=C1C(c1ccc(Br)c(Br)c1)C1=C(CCS1(=O)=O)N2` (single isomer, unassigned) [Example 147, 9-(3.4-dibromophenyl)-2,3,5,6,7,,9-hexahydrothieno[3.2-b]quinolin-8(4H)-one, 1,1-dioxide]: 0.24, 6.2 and 99%.

Consider `O=C1CCCC2=C1C(c1ccc3nonc3c1)C1=C(CCS1(=O)=O)N2` (single isomer, unassigned; (-)) [Example 98, (−)-9-(2.1 .3-benzoxadiazol-5-yl)-2,3.5,6.7,9-hexahydrothieno[3.2-b]guinolin-8(4H)-one, 1,1-dioxide], for which, at potassium channels, the “Landrace Pig Bladder Index” value was 0.057, the “Landrace Pig Bladder Efficacy (% P1075)” value is 100 % P1075 and the “Landrace Pig Bladder pD2” value stood at 5.6. Consider `O=C1CCCC2=C1C(c1ccc(F)c(Br)c1)C1=C(CCS1(=O)=O)N2` (centres unmarked) [Example 43, 9-(3-bromo-4-fluoronhenyl)-2,3,5,6,7,9-hexahydrothieno [3,2-b]quinolin-8(4H)-one, 1,1-dioxide], for which, on potassium channels, the “Landrace Pig Bladder Index” value was found to be 0.41, the “Landrace Pig Bladder pD2” value was 6.6 and the Emax was found to be 98%.

Values taken from patent publication US6593335B1, “Potassium channel openers” (Abbott Laboratories, priority 1997, dated 2003).
